Measured values as given in PMC11290850, “Screening of synthetic 1,2,3-triazolic compounds inspired by SRPIN340 as anti-Trypanosoma cruzi agents” (Revista da Sociedade Brasileira de Medicina Tropical, 2024).
pIC50: −log10 of the molar value. Entries after “also recorded” stand apart in the source; their conditions may differ. Like-named read-outs stand apart in the source and are kept apart here.

Experiments:
[1] = system: intracellular amastigotes of Trypanosoma cruzi Tulahuen transfected with β-galactosidase strain; assay: In vitro trypanocidal activity, β-galactosidase-expressing T. cruzi in L929 fibroblasts; assay type: cell-based; settings: for IC50 / pIC50: intracellular amastigotes, Tulahuen β-galactosidase strain, 96 hours of exposition; for pIC50: value in brackets; for Selectivity index (SI): CC50 (L929)/IC50 (T. cruzi Tulahuen)
Protocol: The in vitro assays were conducted at the Centro de Pesquisas René Rachou-Fiocruz (FIOCRUZ-MINAS), Minas Gerais, Brazil. To evaluate trypanocidal activity, initial in vitro screening was performed following the protocols described by Buckner et al.[43] and Romanha et al.. In this assay, Tulahuen T. cruzi strain expressing β-galactosidase trypomastigotes and intracellular amastigotes were cultured in mouse L929 fibroblasts in RPMI1640 medium without phenol red and containing 10% fetal bovine serum. Tissue culture microplates with L929 fibroblasts were incubated overnight at 37°C with 5% CO2. Subsequently, the Tulahuen β-galactosidase-expressing trypomastigotes were added at a ratio of 1:10 cells to trypomastigotes for 2 hours. The medium was then replaced with fresh medium, and the cultures were incubated for 48 hours. Following this step, the medium was replaced with a solution of the test compound, diluted in dimethyl sulfoxide (DMSO, less than 1%), in RPMI1640 medium with concentrations ranging from 5 to 20 µM. […] Benznidazole was utilized as a positive control at 1 µg/mL (3.84 µM).
(§1) Because the amount of beta-galactosidase is directly proportional to the number of parasites, trypanocidal activity was assessed by measuring the decrease in beta-galactosidase activity in the treated cultures compared to the infected control culture without treatment. To determine the cytotoxicity of the compounds on L929 cells, absorbance was measured at two wavelengths (570 and 600 nm) after 4-6 hours of incubation with alamarBlue® reagent (Invitrogen Corporation, USA). Cytotoxicity was evaluated by analyzing the difference in reagent reduction between treated cells (TC) and untreated cells (UT) using an equation provided by the manufacturer of alamarBlue®: […]
(§2) Half-maximum inhibitory concentration (IC50) and half-maximum cytotoxicity concentration (CC50) values were determined through linear interpolation[45] using Excel software (Microsoft Corporation, USA). The assay was conducted in triplicate, and the results are expressed as the percentage inhibition of parasite growth Cytotoxicity assay.

[2] = Cytotoxicity on L929 cells (alamarBlue); assay type: cell-based; settings: mouse, L929 fibroblasts (infected with T. cruzi), 96-hour exposure
Protocol: as §1, §2
In vitro cytotoxicity assessments of the compounds were performed using AlamarBlue®. The cells and experimental conditions mirrored those used for the trypanocidal assay. After a 96-hour exposure of mouse L929 fibroblasts infected with T. cruzi to the test compounds, alamarBlue® was added, and absorbance was measured after an additional 4-6-hour incubation. IC50 values were determined by linear interpolation, and the selectivity index (SI) was calculated as the ratio of CC50 (the concentration causing 50% cytotoxicity) to IC50 (the concentration causing 50% parasitic inhibition). Benznidazole served as the positive control for comparative analysis.

[3] = system: Trypanosoma cruzi Y strain; assay: In vivo rapid test, parasitemia in Swiss mice infected with T. cruzi Y strain; settings: for Reduction in parasitemia: oral gavage once daily for five days, doses of 10, 50, and 250 mg/kg/day; for Overall performance in vivo compared with BZ / Parasitemia compared to infected untreated animals / Parasitemia compared to the untreated group: oral; for Overall performance in vivo compared with BZ: BZ at 100 mg/kg; for Parasitemia compared to infected untreated animals: doses of 50 and 250 mg/kg/day; for Parasitemia compared to the untreated group: smallest dose 10 mg/kg/day
Protocol: The in vivo assays were conducted at the Laboratório de Pesquisas Clínicas, Escola de Farmácia, Universidade Federal de Ouro Preto (UFOP), Minas Gerais State, Brazil, utilizing only compounds with a selectivity index (SI) exceeding 50 (Table 1).
Swiss female mice aged 28-30 days were obtained from the Centro de Ciência Animal of the Universidade Federal de Ouro Preto (UFOP), Minas Gerais State, Brazil. The animals were housed in a temperature range of 20-24 °C with a 12-hour light-dark cycle, and had ad libitum access to filtered water and commercial feed. The experimental procedures were approved by the institutional Comitê de Ética em Experimentação Animal (CEUA-UFOP), Minas Gerais State, Brazil, Protocol 2157041219.
The mice were intraperitoneally infected with 1x10^4 blood trypomastigotes of the T. cruzi Y strain obtained from mice maintained by successive blood passages (CEUA 2015/50). Infection was confirmed by fresh blood examination (FBE)[46] on the 4th day after infection, and treatment commenced. For the in vivo test, the highest concentration attainable when blending the test compounds in various orally safe vehicles was selected. Canola oil yielded the most favorable results. The compounds were diluted with canola oil to the highest possible concentration of 25 mg/mL. Subsequently, two different dilutions (5x) were prepared, resulting in doses of 250, 50, and 10 mg/kg/day. These doses were administered via oral gavage once daily (group n = 8). In parallel, a control group of mice remained infected and untreated (INT), while another group received treatment with the reference drug (BZ) at a dose of 100 mg/kg. The BZ tablets were crushed with 0.5% gum arabic, and suspended in distilled water.
To evaluate the effectiveness of the compounds in reducing parasitemia, FBE was conducted daily for five consecutive days, during which parasitemia was counted.

[4] = system: U87MG lineage; parameters: method as in earlier work; settings: human glioblastoma cells; cited from earlier work
[5] = Trypanosoma cruzi, TULAHUEN, L929, 96 h, read-out: IC50
[6] = top concentration limited by solubility (20 to 160 µg/mL)

Compound	IC50 [1, 5] [µg/mL]	pIC50 [1, 5]	CC50 at 96 h [2, 6] [µg/mL]	CC50 at 96 h ([2]; value in brackets) [µM]	Selectivity index (SI) [1]	Reduction in parasitemia [3]	Overall performance in vivo compared with BZ [3]	Parasitemia compared to infected untreated animals [3]	Parasitemia compared to the untreated group [3]	IC50 [1]	Cytotoxicity / cellular growth of U87MG lineage [4]
COc1ccc(COCc2cn(-c3cc(C(F)(F)F)ccc3N3CCCCC3)nn2)cc1 [Compound 6K]	10.5	4.63	> 20	> 45	–	–	–	–	–	–	–
FC(F)(F)c1ccc(N2CCCCC2)c(-n2cc(COCc3ccc(Br)cc3)nn2)c1 [Compound 6H]	–	5.34	> 160	> 323	>69	reduction in parasitemia; also recorded: effectively reduced	inferior overall performance	significantly reduced	did not markedly reduce parasitemia	–	–
CCN(CC)c1ccc(C(F)(F)F)cc1-n1cc(COCc2ccc(Cl)cc2)nn1 [Compound 6F]	–	–	–	–	–	–	–	–	–	Not active	–
FC(F)(F)c1ccc(N2CCOCC2)c(-n2cc(COCc3ccc(Cl)cc3)nn2)c1 [Compound 6B]	–	5.30	36.1	79	15.7	–	–	–	–	–	–
COc1ccc(COCc2cn(-c3cc(C(F)(F)F)ccc3N3CCOCC3)nn2)cc1 [Compound 6D]	6.6	4.80	> 20	> 47.6	>3.0	–	–	–	–	–	–
O=C1c2ccccc2C(=O)N1Cc1cn(-c2cc(C(F)(F)F)ccc2N2CCCCC2)nn1 [Compound 6I]	–	–	–	–	–	–	–	–	–	Not active	–
FC(F)(F)c1ccc(N2CCCCC2)c(-n2cc(COCc3ccccc3)nn2)c1 [Compound 6J]	6.5	4.81	> 20	> 48	–	–	–	–	–	–	–
FC(F)(F)c1ccc(N2CCOCC2)c(-n2cc(COCc3ccc(Br)cc3)nn2)c1 [Compound 6C]	< 5	5.17	80	161	23.5	–	–	–	–	–	–
FC(F)(F)c1ccc(N2CCOCC2)c(-n2cc(COCc3ccccc3)nn2)c1 [Compound 6E]	0.5	5.89	62.6	160	125.2	reduction in parasitemia; also recorded: effectively reduced	inferior overall performance	significantly reduced	did not markedly reduce parasitemia	–	–
O=C1c2ccccc2C(=O)N1Cc1cn(-c2cc(C(F)(F)F)ccc2N2CCOCC2)nn1 [Compound 6A]	–	–	–	–	–	–	–	–	–	Not active	no perceived cytotoxicity
FC(F)(F)c1ccc(N2CCCCC2)c(-n2cc(COCc3ccc(Cl)cc3)nn2)c1 [Compound 6G]	< 5	4.98	> 160	> 355	–	–	–	–	–	–	–
O=C(Cn1ccnc1[N+](=O)[O-])NCc1ccccc1 [Benznidazole, reference compound]	1	5.42	625	–	–	–	–	–	–	–	–
